This assay deals with T1, KRAS G12C 1-169, his-tagged protein, GDP-loaded (Homo sapiens, UniProt P01116, G12C).
T1 construct: KRAS G12C 1-169, his-tagged protein, GDP-loaded
As to the kind of experiment: KRAS G12C covalent binding (% modification) by mass spectrometry, ten or three minute incubation. The following applies: covalent binding to KRAS G12C, % modification after a three minute incubation period. On the procedure:
Test compounds were prepared as 10 mM stock solutions in DMSO (Fisher cat #BP-231-100). KRAS G12C 1-169, his-tagged protein, GDP-loaded was diluted to […] in buffer (20 mM Hepes, 150 mM NaCl, 1 mM MgCl2). Compounds were tested for activity as follows:
Compounds were diluted to 50× final test concentration in DMSO in 96-well storage plates. Compound stock solutions were vortexed before use and observed carefully for any sign of precipitation. Dilutions were as follow: • For 100 μM final compound concentration, compounds were diluted to 5000 μM (5 μl 10 mM compound stock+5 μl DMSO and mixed well by pipetting. • For 30 μM final compound concentration, compounds were diluted to 1500 μM (3 μl 10 mM compound stock+17 μl DMSO) and mixed well by pipetting. • For 10 μM final compound concentration, compounds were diluted to 500 μM (2 μl 10 mM compound stock+38 μl DMSO) and mixed well by pipetting. 49 μl of the stock protein solution was added to each well of a 96-well PCR plate (Fisher cat #1423027). 1 μl of the diluted 50× compounds were added to appropriate wells in the PCR plate using 12-channel pipettor. Reactions were mixed carefully and thoroughly by pipetting up/down with a 200 μl multi-channel pipettor. […] 5 μl of 2% formic acid (Fisher cat #A117) in DI H2O was then added to each well followed by mixing with a pipette. The plate was then resealed with aluminum seal and stored on dry ice until analyzed as described below.
The above described assays were analyzed by mass spectrometry according to one of the following two procedures:
The MS instrument is set to positive polarity, 2 GHz resolution, and low mass (1700) mode and allowed to equilibrate for 30 minutes. The instrument is then calibrated, switched to acquisition mode and the appropriate method loaded.
After another 30 minute equilibration time, a blank batch (i.e., buffer) is run to ensure equipment is operating properly. The samples are thawed at 37° C. for 10 minutes, briefly centrifuged, and transfer to the bench top. Wells A1 and H12 are spiked with 1 μL 500 μM internal standard peptide, and the plates centrifuged at 2000×g for 5 minutes. The method is then run and masses of each individual well recorded.
The masses (for which integration data is desired) for each well are pasted into the platemap and exported from the analysis. Masses for the internal standards are exported as well. The data at 50 ppm is extracted for the +19 charge state, and identity of well A1 is assigned using the internal standard spike and integrated. Peak data is exported as a TOF list and the above steps are repeated individually, for the +20, 21, 22, 23, 24, and 25 charge states.
The masses and peak intensities of KRAS G12C protein species were measured using a Dionex RSLCnano system (Thermo Scientific) connected to a Q Exactive Plus mass spectrometer (Thermo Scientific).
[…] of sample was each loaded onto a Aeris™ 3.6 μm WIDEPORE C4 200 Å, LC Column 50×2.1 mm column maintained at 40° C. at a flow rate of 600 μl min^−1 with […] (0.1% formic acid in acetonitrile). The liquid chromatography conditions were 20% solvent B for 1 min, 20% to 60% solvent B for 1.5 min, 60% to 90% solvent for 0.5 min, 90% solvent B for 0.2 min, 90% to 20% solvent B for 0.2 min, and then equilibrated for 1.6 min before the following sample injection. The flow rate was maintained at 600 μl min^−1 throughout the sample analysis.
The mass spectrometer was operated in profile mode at a resolution of 17500, 5 microscans, using 50 msec max injection time and an AGC target of 1e6, and a full mass range from 800-1850 m/z was recorded. The HCD trapping gas was optimized for maximum sensitivity for intact proteins. The ionization method was electrospray ionization, which used a spray voltage of 4 kV, sheath gas flow set to 50 au, auxiliary gas flow set to 10 au and sweep gas flow set to 1 au. […]
As for `C=CC(=O)N1C[C@H](C)N(c2nc(OCCc3nccc(C)n3)nc3c(F)c(-c4c(O)cccc4F)c(Cl)cc23)C[C@H]1C` (atropisomer, axis not shown) [Compound 257, 1-((2R,5S)-4-(6-chloro-8-fluoro-7-((S)-2-fluoro-6-hydroxyphenyl)-2-(2-(4-methylpyrimidin-2-yl)ethoxy)quinazolin-4-yl)-2,5-dimethylpiperazin-1-yl)prop-2-en-1-one], the Binding % result is “+++ (+++ indicates binding activity greater than 90%)”.
As to `C=CC(=O)N1C[C@H](C)N(c2nc(OCCc3ncc(N(C)C)cn3)nc3c(F)c(-c4c(O)cccc4F)c(Cl)cc23)C[C@H]1C` (atropisomer, axis not shown) [Compound 258, 1-((2R,5S)-4-(6-chloro-2-(2-(5-(dimethylamino)pyrimidin-2-yl)ethoxy)-8-fluoro-7-((S)-2-fluoro-6-hydroxyphenyl)quinazolin-4-yl)-2,5-dimethylpiperazin-1-yl)prop-2-en-1-one], the Binding % entry was “+++ (+++ indicates binding activity greater than 90%)”.
Under `C=CC(=O)N1C[C@H](C)N(c2nc(OCCn3cncn3)nc3c(F)c(-c4c(O)cccc4F)c(Cl)cc23)C[C@H]1C` (atropisomer, axis not shown) [Compound 259, 1-((2R,5S)-4-(2-(2-(1H-1,2,4-triazol-1-yl)ethoxy)-6-chloro-8-fluoro-7-((S)-2-fluoro-6-hydroxyphenyl)quinazolin-4-yl)-2,5-dimethylpiperazin-1-yl)prop-2-en-1-one] stands “+++ (+++ indicates binding activity greater than 90%)”; under `C=CC(=O)N1C[C@H](C)N(c2nc(OCCc3cncnc3)nc3c(F)c(-c4c(O)cccc4F)c(Cl)cc23)C[C@H]1C` (atropisomer, axis not shown) [Compound 262, 1-((2R,5S)-4-(6-chloro-8-fluoro-7-((S)-2-fluoro-6-hydroxyphenyl)-2-(2-(pyrimidin-5-yl)ethoxy)quinazolin-4-yl)-2,5-dimethylpiperazin-1-yl)prop-2-en-1-one], “+++ (+++ indicates binding activity greater than 90%)”.
For the molecule `C=CC(=O)N1C[C@H](C)N(c2nc(OCCn3ccnc3C)nc3c(F)c(-c4c(O)cccc4F)c(Cl)cc23)C[C@H]1C` (atropisomer, axis not shown) [Compound 264, 1-((2R,5S)-4-(6-chloro-8-fluoro-7-((S)-2-fluoro-6-hydroxyphenyl)-2-(2-(2-methyl-1H-imidazol-1-yl)ethoxy)quinazolin-4-yl)-2,5-dimethylpiperazin-1-yl)prop-2-en-1-one], the Binding % result is on record as “+++ (+++ indicates binding activity greater than 90%)”.
Then `C=CC(=O)N1C[C@H](C)N(c2nc(OCCn3ccccc3=O)nc3c(F)c(-c4c(O)cccc4F)c(Cl)cc23)C[C@H]1C` (atropisomer, axis not shown) [Compound 265, 1-(2-(4-((2S,5R)-4-acryloyl-2,5-dimethylpiperazin-1-yl)-6-chloro-8-fluoro-7-((S)-2-fluoro-6-hydroxyphenyl)quinazolin-2-yloxy)ethyl)pyridin-2(1H)-one], with “+++ (+++ indicates binding activity greater than 90%)”; and `C=CC(=O)N1CCN(c2nc(OCCc3ncccn3)nc3c(F)c(-c4c(O)cccc4F)c(Cl)cc23)C[C@H]1C` (atropisomer, axis not shown) [Compound 267, 1-((R)-4-(6-chloro-8-fluoro-7-((R)-2-fluoro-6-hydroxyphenyl)-2-(2-(pyrimidin-2-yl)ethoxy)quinazolin-4-yl)-2-methylpiperazin-1-yl)prop-2-en-1-one], with “+ (+ indicates binding activity greater than 0% and up to 50%)”; and `C=CC(=O)N1CCN(c2nc(OCCc3ncccn3)nc3c(F)c(-c4c(O)cccc4F)c(Cl)cc23)C[C@H]1C` (atropisomer, axis not shown) [Compound 268, 1-((R)-4-(6-chloro-8-fluoro-7-((S)-2-fluoro-6-hydroxyphenyl)-2-(2-(pyrimidin-2-yl)ethoxy)quinazolin-4-yl)-2-methylpiperazin-1-yl)prop-2-en-1-one], with “+++ (+++ indicates binding activity greater than 90%)”.
Then `C=CC(=O)N1C[C@H](C)N(c2nc(N3CC(N(C)C)C3)nc3c(F)c(-c4c(O)cccc4F)c(C(F)(F)F)cc23)C[C@H]1C` (atropisomer, axis not shown) [Compound 269, 1-((2R,5S)-4-(2-(3-(dimethylamino)azetidin-1-yl)-8-fluoro-7-((S)-2-fluoro-6-hydroxyphenyl)-6-(trifluoromethyl)quinazolin-4-yl)-2,5-dimethylpiperazin-1-yl)prop-2-en-1-one], with “+ (+ indicates binding activity greater than 0% and up to 50%)”.
With `C=CC(=O)N1C[C@H](C)N(c2nc(N3CC(N(C)C)C3)nc3c(F)c(-c4c(O)cccc4F)c(C(F)(F)F)cc23)C[C@H]1C` (atropisomer, axis not shown) [Compound 270, 1-((2R,5S)-4-(2-(3-(dimethylamino)azetidin-1-yl)-8-fluoro-7-((R)-2-fluoro-6-hydroxyphenyl)-6-(trifluoromethyl)quinazolin-4-yl)-2,5-dimethylpiperazin-1-yl)prop-2-en-1-one], the Binding % result is “+++ (+++ indicates binding activity greater than 90%)”.
Then `C=CC(=O)N1CCN(c2nc(N3CC(N(C)C)C3)nc3c(F)c(-c4c(O)cccc4F)c(C(F)(F)F)cc23)C[C@H]1C` (atropisomer, axis not shown) [Compound 271, 1-((R)-4-(2-(3-(dimethylamino)azetidin-1-yl)-8-fluoro-7-((S)-2-fluoro-6-hydroxyphenyl)-6-(trifluoromethyl)quinazolin-4-yl)-2-methylpiperazin-1-yl)prop-2-en-1-one], with “+ (+ indicates binding activity greater than 0% and up to 50%)”; and `C=CC(=O)N1CCN(c2nc(N3CC(N(C)C)C3)nc3c(F)c(-c4c(O)cccc4F)c(C(F)(F)F)cc23)C[C@H]1C` (atropisomer, axis not shown) [Compound 272, 1-((R)-4-(2-(3-(dimethylamino)azetidin-1-yl)-8-fluoro-7-((R)-2-fluoro-6-hydroxyphenyl)-6-(trifluoromethyl)quinazolin-4-yl)-2-methylpiperazin-1-yl)prop-2-en-1-one], with “+++ (+++ indicates binding activity greater than 90%)”.
As to `C=CC(=O)N1C[C@H](C)N(c2nc(OCCn3ccnc3C3CC3)nc3c(F)c(-c4c(O)cccc4F)c(Cl)cc23)C[C@H]1C` (atropisomer, axis not shown) [Compound 275, 1-((2R,5S)-4-(6-chloro-2-(2-(2-cyclopropyl-1H-imidazol-1-yl)ethoxy)-8-fluoro-7-((S)-2-fluoro-6-hydroxyphenyl)quinazolin-4-yl)-2,5-dimethylpiperazin-1-yl)prop-2-en-1-one], the Binding % entry is recorded as “+++ (+++ indicates binding activity greater than 90%)”.
Then `C=CC(=O)N1C[C@H](C)N(c2nc(OCCn3ccnc3CC)nc3c(F)c(-c4c(O)cccc4F)c(Cl)cc23)C[C@H]1C` (atropisomer, axis not shown) [Compound 277, 1-((2R,5S)-4-(6-chloro-2-(2-(2-ethyl-1H-imidazol-1-yl)ethoxy)-8-fluoro-7-((S)-2-fluoro-6-hydroxyphenyl)quinazolin-4-yl)-2,5-dimethylpiperazin-1-yl)prop-2-en-1-one], with “+++ (+++ indicates binding activity greater than 90%)”.

(Values after patent US11021470B2, “2-substituted quinazoline compounds comprising a substituted heterocyclic group and methods of use thereof” (Araxes Pharma LLC, priority 2015, dated 2021).)
